Source: patent publication US20240245617A1, “LIPID-BASED TOPICAL INJECTION FORMULATIONS” (Beijing Jitai Pharmaceutical Technology Co., Ltd., priority 2022, published 2024)

Experiments:
[1] = Particle size and PDI of lipid nanoparticles by dynamic light scattering; type: physicochemical; conditions: LNP ionizable lipid/cholesterol/DSPC/DMG-PEG2000 50/38.5/10/1.5 mol%, N/P 6, luciferase mRNA
Experimental: (§1) The particle size and particle size dispersity index (polydispersity index, PDI) of the prepared lipid nanoparticles were measured using a Zetasizer Pro (purchased from Malvern Instruments Ltd) and a DynaPro NanoStar (purchased from Wyatt) dynamic light scattering instrument. The degree of RNA encapsulation by lipid nanoparticles was characterized by the Encapsulation Efficiency %, which reflects the degree of binding of lipid nanoparticles to RNA fragments. This parameter was measured by the method of Quant-it™ RiboGreen RNA Assay (purchased from Invitrogen). Lipid nanoparticle samples were diluted in TE buffer (10 mM Tris-HCl, 1 mM EDTA, pH=7.5). A portion of the sample solution was removed, to which 0.5% Triton (Triton X-100) was added, and then allowed to stand at […] for 30 minutes. Immediately after the addition of RIBOGREEN® reaction solution, the fluorescence values were read on a Varioskan LUX multifunctional microplate reader (purchased from Thermofisher) at 485 nm for absorption and 528 nm for emission to give the encapsulation efficiency values.
The preparation of lipid nanoparticles includes microfluidic mixing system, but is not limited to this method, which also includes T-type mixer and ethanol injection method, etc.

[2] = Encapsulation efficiency of lipid nanoparticles, Quant-it RiboGreen RNA Assay; type: physicochemical; conditions: LNP ionizable lipid/cholesterol/DSPC/DMG-PEG2000 50/38.5/10/1.5 mol%, N/P 6, luciferase mRNA
Experimental: as §1
The produced lipid nanoparticles were characterized using the same method as in Assay example 2, and the results are shown in Table 6 (the percentage content of each component is represented by molar percentage).

[3] = test system: C57BL/6 mice; test: In vivo bioluminescence after intravenous administration of lipid nanoparticles encapsulating luciferase mRNA; conditions: 0.5 mg/kg mRNA, liver
Experimental: The delivery effect and safety of nanoparticles encapsulating luciferase mRNA (Trilink, L-7202) in mice were evaluated. The test mice were SPF-grade C57BL/6 mice, female, 6-8 weeks old, weighing 18-22 g, and were purchased from SPF (Beijing) Biotechnology Co., Ltd. All animals were acclimatized for more than 7 days prior to the experiment, and had free access to food and water during the experiment. The conditions include alternating light and dark for 12/12 h, the indoor temperature of 20-26° C. and the humidity of 40-70%. The mice were randomly grouped. The lipid nanoparticles encapsulating luciferase mRNA prepared above were injected into mice by intravenous administration at a single dose of 0.5 mg/kg mRNA, and the mice were subjected to in vivo bioluminescence assay using a Small Animal In Vivo Imaging System (IVIS LUMINA III, purchased from PerkinElmer) at 6 h after administration. The assay was performed as follows: D-luciferin solution was prepared in saline at a concentration of 15 mg/mL, and each mouse was given the substrate by intraperitoneal injection. At ten minutes after administration of the substrate, the mice were anesthetized in an anesthesia chamber with isoflurane at a concentration of 2.5%. […] Data acquisition and analysis were performed on the liver.
The in vivo delivery efficiency of lipid nanoparticle carriers was expressed as the mean values of fluorescence intensity and total photon count in different animals within the same subject group, as shown in Table 4. Higher values of fluorescence intensity and total photon count indicate higher in vivo delivery efficiency of this mRNA fragment by lipid nanoparticles. The lipid nanoparticles containing the cationic lipids of the present disclosure have good in vivo delivery efficiency and mainly target the liver.

| Compound | Particle size (nm) [1] | Particle size dispersity (PDI) [1] | Encapsulation efficiency (%) [2] | Total photon count in vivo at 6 hours after administration (Total Flux) [3] |
| --- | --- | --- | --- | --- |
| CCCC/C=C\CCCCOC(=O)C(C)(C)CCCCCC(CCCCCC(C)(C)C(=O)OCCCC/C=C\CCCC)OC(=O)CCCN(C)C [Compound 28] | 138.16 nm | 0.06 | 80.36% | 3.21E+09 |
| CCCCCCCCCSC(=O)C(C)(C)CCCCCC(CCCCCC(C)(C)C(=O)OCC#CC(CCCC)CCCC)OC(=O)CCCN(C)C (stereo not shown) [Compound 119] | 80.98 nm | 0.05 | 86.92% | 3.25E+10 |
| CCCCCCCCCSC(=O)C(C)(C)CCCCCC(CCCCCC(C)(C)C(=O)OCC#CCC(CCCC)CCCC)OC(=O)CCCN(C)C (stereo not shown) [Compound 121] | 103.57 nm | 0.06 | 93.62% | >4.00E+10 |
| CCCCCCCCCCOC(=O)C(C)(C)CCCCC(CCCCC(C)(C)C(=O)OCC(CCCCC)CCCCCCC)OC(=O)CCCN(C)C (stereo not shown) [Compound 123] |  |  |  | >4.00E+10 |
| CCCCCCCCCOC(=O)C(C)(C)CCCCCCC(CCCCCCC(C)(C)C(=O)OCC(CCCCC)CCCCCCC)OC(=O)CCCN(C)C (stereo not shown) [Compound 125] |  |  |  | 1.99E+10 |
| CCCCCCCCCOC(=O)C(C)(C)CCCCCCC(CCCCCCC(C)(C)C(=O)OCC(CCCCC)CCCCCCC)OC(=O)CCCCN(C)C (stereo not shown) [Compound 126] |  |  |  | 1.77E+10 |
| CCCCCCC(CCCCCC)CCOC(=O)CCC(C)(C)CCCC(CCCC(C)(C)CCC(=O)OCCC(CCCCCC)CCCCCC)OC(=O)CCCN(C)C [Compound 128] |  |  |  | 1.00E+10 |
| CCCCCCCC(CCCCCCC)COC(=O)CCC(C)(C)CCCC(CCCC(C)(C)CCC(=O)OCC(CCCCCCC)CCCCCCC)OC(=O)CCCN(C)C [Compound 129] |  |  |  | 7.82E+09 |
| CCCCCCCCCOC(=O)CCCCCCC(CCCCCCC(=O)OCCCCCCCCC)OC(=O)CCCN(C)C [Compound 130] |  |  |  | 4.45E+07 |
| CCCCCCCCCOC(=O)CCCCCCC(CCCCCCC(=O)OCC(CCCCC)CCCCCCC)OC(=O)CCCN(C)C (stereo not shown) [Compound 131] |  |  |  | 1.57E+09 |
